What was measured:
[1] = Solubility to alcohol (methanol), visual observation; assay type: physicochemical; design: key to Solubility to methanol, solid content 5% by weight / Solubility to methanol, solid content 10% by weight / Solubility to methanol, solid content 20% by weight / Solubility to methanol, solid content 30% by weight / Solubility to methanol, solid content 40% by weight / Solubility to methanol, solid content 50% by weight / Solubility to methanol, solid content 60% by weight: ◯: The compound is perfectly dissolved in methanol, and the resultant liquid contains no solid material.; X: The compound is imperfectly dissolved in methanol and the resultant liquid contains a solid material or is opaque (i.e., is not transparent); conditions: for Solubility to methanol, solid content 5% by weight / Solubility to methanol, solid content 10% by weight / Solubility to methanol, solid content 20% by weight / Solubility to methanol, solid content 30% by weight / Solubility to methanol, solid content 40% by weight / Solubility to methanol, solid content 50% by weight / Solubility to methanol, solid content 60% by weight: methanol solution, one hour at room temperature, visual
Procedure: Each of the compound of Example 1 and comparative compounds (6) to (9) was dissolved in methanol to prepare methanol solutions thereof having a solid content of 5%, 10%, 20%, 30%, 40%, 50% or 60% by weight. Alter the solutions were allowed to settle for one hour at room temperature, the solutions were visually observed to determine the solubility of the compounds to methanol. The solubility to methanol was graded as follows:
◯: The compound is perfectly dissolved in methanol, and the resultant liquid contains no solid material.
X: The compound is imperfectly dissolved in methanol and the resultant liquid contains a solid material or is opaque (i.e., is not transparent).

[2] = Crosslinked outermost layer of photoreceptor from methanol coating liquid; image formation; conditions: with methyl trimethoxy silane in methanol
Procedure: Preparation of Crosslinked Charge Transport Layer Using Sol-Gel Method
The following components were mixed.
The mixture was agitated for one hour at room temperature to perform a reaction. Then 53.4 mg of tris(2,4-pentanedionate)aluminum (III) was added to the mixture to prepare a coating liquid including methanol as a solvent.
The coating liquid was coated on the above-prepared charge transport layer by a spray coating method and then dried to form an outermost layer with a thickness of 2 μm. The photoreceptor was heated for 1 hour at 130° C. to crosslink the outermost layer.
The photoreceptor was set in the main body of the image forming apparatus (IMAGIO NEO) to produce images. The resultant images had good image qualities.
The procedure for preparation of the outermost layer in Applied Example 1 was repeated except that the compound of Example 1 was replaced with each of the comparative compounds (6) to (9).

[3] = Film formability when mixed 1:1 with alcohol-soluble polyamide resin (CM8000), blade-coated layer; assay type: physicochemical; design: key to Film formability: ◯: The resultant layer is transparent.; X: The resultant layer is opaque due to crystallization of the compounds or bad compatibility with the resin; conditions: for Film formability: 1:1 by weight with polyamide resin CM8000, solid content 20% by weight, 20 μm layer on aluminum plate, dried at 23° C.; for Film formability (in words): mixed with an alcohol-soluble resin
Procedure: In addition, each of the compound of Example 1 and comparative compounds (6) to (9) was mixed with an alcohol-soluble polyamide resin (CM8000 from Toray Industries, Inc.) in a weight ratio of 1:1 such that the solid content of the mixture is 20% by weight. Each of the mixtures was coated on an aluminum plate by a blade coating method and then dried at room temperature (23° C.) to prepare a layer with a thickness of 20 μm. The thus prepared layers were visually observed to determine the film formability of the layers. The film formability was graded as follows:
◯: The resultant layer is transparent.
X: The resultant layer is opaque due to crystallization of the compounds or bad compatibility with the resin.

[4] = Solubility to alcohol (methanol), visual observation; assay type: physicochemical; conditions: background section, no method given

SMILES | Solubility to methanol (in words) [1] | Solubility to methanol, solid content 5% by weight [1] | Solubility to methanol, solid content 10% by weight [1] | Solubility to methanol, solid content 20% by weight [1] | Solubility to methanol, solid content 30% by weight [1] | Solubility to methanol, solid content 40% by weight [1] | Solubility to methanol, solid content 50% by weight [1] | Solubility to methanol, solid content 60% by weight [1] | Preparation of outermost layer coating liquid in methanol [2] | Film formability [3] | Solubility to methanol (present inventors' study of prior-art compounds) [4] | Film formability (in words) [3]
Oc1cccc(N(c2ccccc2)c2ccc(-c3ccc(N(c4ccccc4)c4cccc(O)c4)cc3)cc2)c1 [Comp. compound (7)] | poor solubility to methanol | ◯ | ◯ | ◯ | X | X | X | X | coating liquids could not be prepared | X | – | –
OCC(O)COc1ccc(N(c2ccccc2)c2ccc(-c3ccc(N(c4ccccc4)c4ccc(OCC(O)CO)cc4)cc3)cc2)cc1 (stereo not shown) [Example 2, N,N′-diphenyl-N,N′-bis[4-(2,3-dihydroxypropyloxy)phenyl]benzidine] | as good solubility to methanol | – | – | – | – | – | – | – | – | – | – | as good solubility to methanol and film formability as the compound of Example 1
CCc1ccc(N(c2ccc(CCO)cc2)c2ccc(CCO)cc2)cc1C [Comp. compound (8)] | – | ◯ | ◯ | ◯ | ◯ | X | X | X | coating liquid could be prepared | X | – | –
Oc1cccc(N(c2ccccc2)c2ccc(-c3ccc(N(c4ccccc4)c4cccc(O)c4)cc3)cc2)c1 [N,N′-diphenyl-N,N′-bis(3-hydroxyphenyl)-[1,1′-biphenyl]-4,4′-diamine] | – | – | – | – | – | – | – | – | – | – | insufficient | –

The next lines start with results.

Solubility to methanol (in words) [1] | Solubility to methanol, solid content 5% by weight [1] | Solubility to methanol, solid content 10% by weight [1] | Solubility to methanol, solid content 20% by weight [1] | Solubility to methanol, solid content 30% by weight [1] | Solubility to methanol, solid content 40% by weight [1] | Solubility to methanol, solid content 50% by weight [1] | Solubility to methanol, solid content 60% by weight [1] | Preparation of outermost layer coating liquid in methanol [2] | Film formability [3] | Solubility to methanol (present inventors' study of prior-art compounds) [4] | SMILES | Film formability (in words) [3]
– | – | – | – | – | – | – | – | – | – | insufficient | Cc1ccc(N(c2ccc(C)cc2)c2ccc(C(C)(c3ccc(O)cc3)c3ccc(O)cc3)cc2)cc1 [1,1-bis(4-hydroxyphenyl)-1-[4-(paraditolylamino)phenyl]ethane] | –
good solubility to methanol | ◯ | ◯ | ◯ | ◯ | ◯ | ◯ | ◯ | – | ◯ | – | Cc1ccc(N(c2ccc(C)cc2)c2ccc(C=C(c3ccc(OCC(O)CO)cc3)c3ccc(OCC(O)CO)cc3)cc2)cc1 (stereo not shown) [Compound of Ex. 1, N-{4-[2,2-bis(4-(2,3-dihydroxypropyloxy)phenyl)vinyl]phenyl}-N,N-bis(4-tolyl)amine] | good film formability
poor solubility to methanol | ◯ | ◯ | ◯ | ◯ | X | X | X | coating liquids could not be prepared | X | – | Cc1ccc(N(c2ccc(C)cc2)c2ccc(C(C)(c3ccc(O)cc3)c3ccc(O)cc3)cc2)cc1 [Comp. compound (6)] | –
poor solubility to methanol | X | X | X | X | X | X | X | coating liquids could not be prepared | – | – | Cc1ccc(N(c2ccc(C)cc2)c2ccc(C=C(c3ccc(OCCO)cc3)c3ccc(OCCO)cc3)cc2)cc1 [Comp. compound (9)] | –
